Reference: patent US20240166658A1, “PORPHYRIN DERIVATIVES AND USES THEREOF” (University of Tasmania, priority 2021, published 2024)

Legend:
[1] = UV-Vis host-guest titration, association constant; format: binding; conditions: host (9) in dichloromethane; triplicate, TBA salt and acid; Bindfit
Experimental: (§1) Path length of the quartz cell was 1 cm. For UV-vis titrations, a stock solution of host was prepared (2.2×10^−3 M) in dichloromethane (DCM) and serially diluted to the required concentrations. Working solutions of tetrabutylammonium (TBA) anion salts or guest molecules were prepared in the same manner Host−guest titrations used solutions of guest prepared in the working concentration of host solution, according to the procedure of Thordarson, 2011.
(§2) UV-vis spectroscopic host−guest titrations were performed in accordance with the methodologies of Thordarson, 2011. Solutions of host in dichloromethane were prepared. Solutions of guest were then prepared in the host solution. Aliquots of guest in host solution were added to host solution and sequentially analysed until a known molar equivalent of guest was added. The amount of guest added per aliquot was ascertained by a preliminary screening experiment; strong association constants required smaller molar equivalents so more information could be collected. By way of example, host (9) responded to 0.1 molar equivalent of PFBA strongly, so an addition of 1 molar equivalent of PFBA would result in a loss of information. The inverse is true for weaker binding interactions. […]
(§3) A host solution of host (9) in dichloromethane was monitored using UV-Vis analysis as 0.5-10 equivalents of each PFAS was added. […]

Soil tests = conditions: 5 g dried soil, 20 mL host in dichloromethane, no pre-treatment or pre-concentration
Experimental: Soil was taken front the top 15 cm of the garden bed outside the Chemistry Building at the University of Tasmania and dried in the oven at 40° C. for approximately 60 hours. This soil was then spiked with 10 ppm PFOA: Two 50 g dried soil samples were transferred into two separate 1 L polypropylene containers. One sample was combined with a dichloromethane-PFOA solution (200 mL of 6×10^−6 M PFOA in DCM) and the other was combined with only dichloromethane (200 mL). The solutions were left to evaporate. 5 g of the resulting samples was transferred to high density polyethylene tubes.
Combinations of sensor molecule (9) in different organic solvents were added to spiked and control samples, and the results were compared. Water was also added to see if a biphasic system was beneficial for extraction from soil. • A=20 mL dichloromethane+medium chain sensor (9) • B=10 mL of water-->20 mL dichloromethane+medium chain sensor (9) • C=20 mL ethyl acetate+medium chain sensor (9) • D=20 mL toluene+medium chain sensor (9)
Dried soil samples (5 g) were also combined with 20 mL of host (9) in dichloromethane and shaken to show a colour change observable in the solvent.

[2] = Preliminary binding study, colour change
Description: Preliminary binding studies were undertaken by combining an amide linked porphyrin host molecule (9) and tetrabutylammonium perfluorooctanoate (TBAPFO) in dichloromethane.

[3] = UV-Vis host-guest titration, association constant; format: binding; conditions: host (9) in dichloromethane; triplicate, TBA salt and acid; Bindfit; remark: listed apart in the source
Experimental: as §1, §2, §3

O=C(Nc1ccccc1-c1c2nc(c(-c3ccccc3NC(=O)C(F)(F)C(F)(F)C(F)(F)C(F)(F)C(F)(F)C(F)(F)C(F)(F)F)c3ccc([nH]3)c(-c3ccccc3NC(=O)C(F)(F)C(F)(F)C(F)(F)C(F)(F)C(F)(F)C(F)(F)C(F)(F)F)c3nc(c(-c4ccccc4NC(=O)C(F)(F)C(F)(F)C(F)(F)C(F)(F)C(F)(F)C(F)(F)C(F)(F)F)c4ccc1[nH]4)C=C3)C=C2)C(F)(F)C(F)(F)C(F)(F)C(F)(F)C(F)(F)C(F)(F)C(F)(F)F [host (9), α,α,α,α-5,10,15,20-tetrakis(2-(pentadecafluorooctanoylamino)phenyl)porphyrin]
K value (averaged association constant Ka) [1]: 58920
colour change with soil sample (Soil tests): discernible by the naked eye
colour change of host solution ([2]; addition of solid TBAPFO to red-brown host solution in dichloromethane): changed colour to green
colour change of host solution, biphasic ([2]; host in dichloromethane (0.0124 mmol, 5 mL) and TBAPFO 3 ppm in water (500 mL)): colour change of the host solution could also be observed
K value (averaged association constant Ka) [3]: 23968
